Source: patent publication US20160052898A1, “NOVEL COMPOUNDS” (BAYER PHARMA AKTIENGESELLSCHAFT, priority 2013, published 2016)
Where a name gives a salt, the structure may show the parent alone.

How the values were obtained:
Assay type in all cases: cell-based
wildtype Wnt pathway = experiment: HEK293 Super TopFlash cellular reporter assay, Wnt-3a stimulated (wildtype Wnt pathway); conditions: Homo sapiens; HEK293 TOP reporter cells, EC50 concentration of recombinant Wnt-3a, 16 hours incubation; read-out: HEK TOP OncoFlash IC50
Protocol: (§1) In order to determine the inhibitory activity of compounds for the WT Wnt signaling pathway, the Super TopFlash vector respectively FOP vector were cotransfected with pcDNA3 into HEK293 and stable transfected HEK293 cells were isolated by antibiotic selection. […] The recombinant human Wnt-3a was thereby used between 2500 and 5 ng/ml in two-fold dilution steps. […] Measurement of luciferase expression was done as described for the constitutive active Wnt assay.
In order to discover and characterize small molecules which inhibit the wildtype Wnt pathway, a cellular reporter assay was employed. The corresponding assay cell was generated by transfection of the mammalian cell line HEK293 (ATCC, #CRL-1573) with the Super TopFlash vector (Morin, Science 275, 1997, 1787-1790; Molenaar et al., Cell 86 (3), 1996, 391-399). The HEK293 cell line is cultivated at 37° C. and 5% CO2 in DMEM (Life Technologies, #41965-039), supplemented with 2 mM glutamine, 20 mM HEPES, 1.4 mM pyruvate, 0.15% Na-bicarbonate and 10% foetal bovine serum (GIBCO, #10270). Stable transfectants were generated by selection with 300 μg/ml Hygromycin.
(§2) In preparation of the assay, the two cell lines were plated 24 hours before beginning the test at 10000 cells per well in a 384 micro titre plate (MTP) in […] growth medium. […] The recombinant human Wnt-3a was thereby applied between 2500 and 5 ng/ml in two-fold dilution steps. Selective inhibitory activity for small molecules on the wildtype Wnt pathway was determined after parallel incubation of both (TOP and FOP) HEK293 reporter cell lines with a compound dilution series from 50 μM to 15 nM in steps of 3.16-fold dilutions in CAFTY buffer (130 mM NaCl, 5 mM KCl, 20 mM HEPES, 1 mM MgCl2, 5 mM NaHCO3, pH 7.4) containing 2 mM Ca^2+ and 0.01% BSA.
(§3) The compounds were thereby serially prediluted in 100% DMSO and thereafter 50 fold into the CAFTY compound dilution buffer (described above).

[1] = system: constitutive active colorectal cancer cell (CRC) Wnt pathway; experiment: HCT116 Super TopFlash cellular reporter assay (constitutive active Wnt pathway); conditions: HCT116 TOP reporter cells, luciferase expression, 36 hours incubation, 50 μM to 15 nM
Method in brief: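 HCT116 cells (β-catenin ΔS45) stably carrying Super TopFlash, with a parallel FOP-control line, were plated 24 h ahead. They were exposed 36 h at 37 °C, 5% CO2 to compound from a 50 μM–15 nM, 3.16-fold pre-dilution series in CAFTY buffer (pH 7.4, 2 mM Ca2+, 0.01% BSA). Wnt signalling was read as luciferase luminescence.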

[2] = system: HEK293 FOP control reporter cell line; experiment: HEK293 FOP control vector reporter assay; conditions: Homo sapiens; HEK293 FOP control reporter cells, EC50 concentration of recombinant Wnt-3a, 16 hours incubation; read-out: HEK FOP IC50
Protocol: as §1
In a parallel approach, HEK293 cells were cotransfected with the FOP control vector and pcDNA3. The FOP vector is identical to the TOP construct, but it contains instead of functional TCF elements a randomized, non-functional sequence. For this transfection a stable transfected cell line was generated as well, based on selection with Geneticin (1 mg/ml).
as §2, §3

[3] = system: HCT116 FOP control reporter cell line; experiment: HCT116 FOP control vector reporter assay (non-functional TCF elements); conditions: Homo sapiens, HCT-116, 36 h, HCT116 FOP control reporter cells, luciferase expression, 36 hours incubation, 50 μM to 15 nM; read-out: HCT116 FOPFlash IC50
Method in brief: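 Stable HCT116 line carrying the non-functional FOP luciferase construct, 10000 cells/well plated 24 hrs before. Compounds 50 μM to 15 nM (3.16-fold steps) in CAFTY buffer pH 7.4 with 2 mM Ca2+, 36 hours at 37° C; luciferase luminescence read.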

Row | SMILES | IC50 (wildtype Wnt pathway) [nM] | IC50 ([1]; Homo sapiens, HCT-116, 36 h) [nM] | IC50 [2] [nM] | IC50 [3] [nM] | IC50 [1] [nM]
1 | Nc1ccc(-c2ccc(C(=O)Nc3ccc(OC(F)(F)F)c(NC(=O)CN4CCOCC4)c3)cc2)cc1 [Example 76, 4′-amino-N-{3-[(morpholin-4-ylacetyl)amino]-4-(trifluoromethoxy)phenyl}biphenyl-4-carboxamide] | 39 | 487 | 11000 | ≥ 50000 | –
2 | COC(=O)c1ccc(-c2ccc(C(=O)Nc3ccc(OC)c(NC(=O)CN4CCOCC4)c3)cc2)cc1 [Example 79, methyl 4′-({4-methoxy-3-[(morpholin-4-ylacetyl)amino]phenyl}carbamoyl)biphenyl-4-carboxylate] | 4100 | 1480 | ≥ 50000 | ≥ 50000 | –
3 | COc1cccc(-c2ccc(C(=O)Nc3ccc(OC)c(NC(=O)CN4CCOCC4)c3)cc2)c1 [Example 80, 3′-methoxy-N-{4-methoxy-3-[(morpholin-4-ylacetyl)amino]phenyl}biphenyl-4-carboxamide] | 3800 | 3300 | ≥ 50000 | ≥ 50000 | –
4 | COc1ccc(NC(=O)c2ccc(-c3cccc(F)c3)cc2)cc1NC(=O)CN1CCOCC1 [Example 81, 3′-fluoro-N-{4-methoxy-3-[(morpholin-4-ylacetyl)amino]phenyl}biphenyl-4-carboxamide] | 320 | 290 | 9800 | ≥ 50000 | –
5 | COc1ccc(NC(=O)c2ccc(-c3ccccc3F)cc2)cc1NC(=O)CN1CCOCC1 [Example 82, 2′-fluoro-N-{4-methoxy-3-[(morpholin-4-ylacetyl)amino]phenyl}biphenyl-4-carboxamide] | 1700 | 325 | ≥ 50000 | ≥ 50000 | –
6 | COc1ccc(NC(=O)c2ccc(-c3ccc(N)cc3)cc2)cc1NC(=O)CN1CCOCC1 [Example 83, 4′-amino-N-{4-methoxy-3-[(morpholin-4-ylacetyl)amino]phenyl}biphenyl-4-carboxamide] | 760 | 319 | ≥ 50000 | ≥ 50000 | –
7 | CCOc1ccc(NC(=O)c2ccc(-c3ccccc3)cc2)cc1NC(=O)CN1CCOCC1 [Example 85, N-{4-ethoxy-3-[(morpholin-4-ylacetyl)amino]phenyl}biphenyl-4-carboxamide] | 830 | 99.7 | ≥ 50000 | ≥ 50000 | –
8 | COCCOCc1ccc(C(=O)Nc2ccc(-c3ccccc3)cc2)cc1NC(=O)CN1CCOCC1 [Example 86, N-(biphenyl-4-yl)-4-[(2-methoxyethoxy)methyl]-3-[(morpholin-4-ylacetyl)amino]benzamide] | 610 | 87 | ≥ 50000 | ≥ 50000 | –
9 | O=C(Nc1ccc(-c2ccccc2)cc1)c1ccc(OCc2ccccc2)c(NC(=O)C2(N3CCOCC3)CC2)c1 [Example 88, 4-(benzyloxy)-N-(biphenyl-4-yl)-3-({[1-(morpholin-4-yl)cyclopropyl]carbonyl}amino)benzamide] | 93 | 44.8 | ≥ 50000 | ≥ 50000 | –
10 | CC(=O)NCCCOc1ccc(C(=O)Nc2ccc(-c3ccccc3)cc2)cc1NC(=O)C1(N2CCOCC2)CC1 [Example 90, 4-(3-acetamidopropoxy)-N-(biphenyl-4-yl)-3-({[1-(morpholin-4-yl)cyclopropyl]carbonyl}amino)benzamide] | 20.6 | 50 | 6100 | 27400 | –
11 | O=C(Nc1ccc(-c2ccccc2)cc1)c1ccc(OC(F)(F)F)c(NC(=O)C2(N3CCOCC3)CC2)c1 [Example 94, N-(biphenyl-4-yl)-3-({[1-(morpholin-4-yl)cyclopropyl]carbonyl}amino)-4-(trifluoromethoxy)benzamide] | 5.09 | 10.9 | 7600 | ≥ 50000 | –
12 | COCc1ccc(C(=O)Nc2ccc(-c3ccccc3)cc2)cc1NC(=O)C1(N2CCOCC2)CC1 [Example 95, N-(biphenyl-4-yl)-4-(methoxymethyl)-3-({[1-(morpholin-4-yl)cyclopropyl]carbonyl}amino)benzamide] | 16 | 4.58 | ≥ 50000 | ≥ 50000 | –
13 | COCc1ccc(C(=O)Nc2ccc(-c3ccccc3)cc2)cc1NC(=O)C1(N2CCN(C)CC2)CC1 [Example 96, N-(biphenyl-4-yl)-4-(methoxymethyl)-3-({[1-(4-methylpiperazin-1-yl)cyclopropyl]carbonyl}amino)benzamide hydrochloride (1:1)] | 40 | 34.5 | 9600 | 8250 | –
14 | O=C(Nc1ccc(-c2ccccc2)cc1)c1ccc(Cl)c(NC(=O)C2(N3CCOCC3)CC2)c1 [Example 97, N-(biphenyl-4-yl)-4-chloro-3-({[1-(morpholin-4-yl)cyclopropyl]carbonyl}amino)benzamide] | 250 | 24.2 | ≥ 50000 | ≥ 50000 | –
15 | O=C(Nc1ccc(-c2ccccc2)cc1)c1ccc(C(F)(F)F)c(NC(=O)C2(N3CCOCC3)CC2)c1 [Example 98, N-(biphenyl-4-yl)-3-({[1-(morpholin-4-yl)cyclopropyl]carbonyl}amino)-4-(trifluoromethyl)benzamide] | 86 | 7.24 | ≥ 50000 | ≥ 50000 | –
16 | COc1ccc(C(=O)Nc2ccc(-c3ccccc3)cc2)cc1NC(=O)C1(N2CCN(C)CC2)CC1 [Example 100, N-(biphenyl-4-yl)-4-methoxy-3-({[1-(4-methylpiperazin-1-yl)cyclopropyl]carbonyl}amino)benzamide hydrochloride (1:1)] | 90 | – | 19000 | 20800 | 24.8
17 | COc1ccc(C(=O)Nc2ccc(-c3ccccc3)cc2)cc1NC(=O)C1(N2CCOCC2)CC1 [Example 101, N-(biphenyl-4-yl)-4-methoxy-3-({[1-(morpholin-4-yl)cyclopropyl]carbonyl}amino)benzamide] | 11 | 5.21 | 17000 | ≥ 50000 | –
18 | CCNC(=O)c1ccc(C(=O)Nc2ccc(-c3ccccc3)cc2)cc1NC(=O)CN1CCOCC1 [Example 102, N^4-(biphenyl-4-yl)-N^1-ethyl-2-[(morpholin-4-ylacetyl)amino]terephthalamide] | 41 | 45.9 | 5800 | 28900 | –
19 | COCCNC(=O)c1ccc(C(=O)Nc2ccc(-c3ccccc3)cc2)cc1NC(=O)CN1CCOCC1 [Example 106, N^4-(biphenyl-4-yl)-N^1-(2-methoxyethyl)-2-[(morpholin-4-ylacetyl)amino]terephthalamide] | 76 | 17.2 | ≥ 50000 | ≥ 50000 | –
20 | O=C(CN1CCOCC1)Nc1cc(C(=O)Nc2ccc(-c3ccccc3)cc2)ccc1C(=O)NC1CC1 [Example 107, N^4-(biphenyl-4-yl)-N^1-cyclopropyl-2-[(morpholin-4-ylacetyl)amino]terephthalamide] | 310 | 38.5 | 36000 | 21000 | –
21 | COCCCNC(=O)c1ccc(C(=O)Nc2ccc(-c3ccccc3)cc2)cc1NC(=O)CN1CCOCC1 [Example 108, N^4-(biphenyl-4-yl)-N^1-(3-methoxypropyl)-2-[(morpholin-4-ylacetyl)amino]terephthalamide] | 15.6 | 44.5 | ≥ 50000 | 43500 | –
